From ChEMBL document CHEMBL1154822, “Synthesis and antiproliferative activity of 7-azaindirubin-3'-oxime, a 7-aza isostere of the natural indirubin pharmacophore” (J Nat Prod, 2009)

What was measured:
Format in all cases: functional
OVCAR-4 = experiment: Cytotoxicity against human OVCAR4 cells assessed as cell growth at 1 uM after 1 to 11 days by MTT assay; conditions: read-out: Activity
UO-31 = experiment: Cytotoxicity against human UO31 cells assessed as cell growth at 1 uM after 1 to 11 days by MTT assay; conditions: read-out: Activity
SK-MEL-5 = experiment: Cytotoxicity against human SK-MEL-5 cells assessed as cell growth at 10 uM after 1 to 11 days by MTT assay; conditions: read-out: Activity
IGROV-1 [1] = experiment: Cytotoxicity against human IGROV1 cells assessed as cell growth at 10 uM after 1 to 11 days by MTT assay; conditions: read-out: Activity
786-0 [2] = experiment: Cytotoxicity against human 786-0 cells assessed as cell growth at 10 uM after 1 to 11 days by MTT assay; conditions: read-out: Activity
BT-549 [3] = experiment: Cytotoxicity against human BT549 cells assessed as cell growth at 1 uM after 1 to 11 days by MTT assay; conditions: read-out: Activity
NCI-H322M = experiment: Cytotoxicity against human NCI-H322M cells assessed as cell growth at 10 uM after 1 to 11 days by MTT assay; conditions: read-out: Activity
NCI-H460 [4] = experiment: Cytotoxicity against human NCI-H460 cells assessed as cell growth at 10 uM after 1 to 11 days by MTT assay; conditions: read-out: Activity
KM12 [5] = experiment: Cytotoxicity against human KM12 cells assessed as cell growth at 10 uM after 1 to 11 days by MTT assay; conditions: read-out: Activity
SF-268 = experiment: Cytotoxicity against human SF268 cells assessed as cell growth at 10 uM after 1 to 11 days by MTT assay; conditions: read-out: Activity
SF-539 = experiment: Cytotoxicity against human SF539 cells assessed as cell growth at 10 uM after 1 to 11 days by MTT assay; conditions: read-out: Activity
PC-3 = experiment: Cytotoxicity against human PC3 cells assessed as cell growth at 10 uM after 1 to 11 days by MTT assay; conditions: read-out: Activity
[6] = Cytotoxicity against human Hs 578T cells assessed as cell growth at 10 uM after 1 to 11 days by MTT assay; conditions: read-out: Activity
RPMI-8226 = experiment: Cytotoxicity against human RPMI8226 cells assessed as cell growth at 100 uM after 1 to 11 days by MTT assay; conditions: read-out: Activity
NCI-H460 [7] = experiment: Cytotoxicity against human NCI-H460 cells assessed as cell growth at 100 uM after 1 to 11 days by MTT assay; conditions: read-out: Activity
HCC 2998 [8] = experiment: Cytotoxicity against human HCC2998 cells assessed as cell growth at 100 uM after 1 to 11 days by MTT assay; conditions: read-out: Activity
SNB-75 [9] = experiment: Cytotoxicity against human SNB75 cells assessed as cell growth at 100 uM after 1 to 11 days by MTT assay; conditions: read-out: Activity
DU-145 = experiment: Cytotoxicity against human DU145 cells assessed as cell growth at 100 uM after 1 to 11 days by MTT assay; conditions: read-out: Activity
NCI/ADR-RES [10] = experiment: Cytotoxicity against human NCI/ADR-RES cells assessed as cell growth at 100 uM after 1 to 11 days by MTT assay; conditions: read-out: Activity
MOLT-4 = experiment: Cytotoxicity against human MOLT4 cells assessed as cell growth at 1 mM after 1 to 11 days by MTT assay; conditions: read-out: Activity
A549 [11] = experiment: Cytotoxicity against human A549 cells assessed as cell growth at 1 mM after 1 to 11 days by MTT assay; conditions: read-out: Activity
NCI-H226 = experiment: Cytotoxicity against human NCI-H226 cells assessed as cell growth at 1 mM after 1 to 11 days by MTT assay; conditions: read-out: Activity
NCI-H23 = experiment: Cytotoxicity against human NCI-H23 cells after 1 to 11 days by MTT assay
KM12 [12] = experiment: Cytotoxicity against human KM12 cells after 1 to 11 days by MTT assay
LOX IMVI [13] = experiment: Cytotoxicity against human LOXIMVI cells assessed as cell growth at 1 mM after 1 to 11 days by MTT assay; conditions: read-out: Activity
UACC-257 = experiment: Cytotoxicity against human UACC257 cells assessed as cell growth at 1 mM after 1 to 11 days by MTT assay; conditions: read-out: Activity
UACC-62 [14] = experiment: Cytotoxicity against human UACC62 cells assessed as cell growth at 1 mM after 1 to 11 days by MTT assay; conditions: read-out: Activity
OVCAR-3 = experiment: Cytotoxicity against human OVCAR-3 cells assessed as cell growth at 1 mM after 1 to 11 days by MTT assay; conditions: read-out: Activity
OVCAR-5 = experiment: Cytotoxicity against human OVCAR5 cells assessed as cell growth at 1 mM after 1 to 11 days by MTT assay; conditions: read-out: Activity
NCI/ADR-RES [15] = experiment: Cytotoxicity against human NCI/ADR-RES cells assessed as cell growth at 1 mM after 1 to 11 days by MTT assay; conditions: read-out: Activity
BT-549 [16] = experiment: Cytotoxicity against human BT549 cells assessed as cell growth at 1 mM after 1 to 11 days by MTT assay; conditions: read-out: Activity
UACC-62 [17] = experiment: Cytotoxicity against human UACC62 cells after 1 to 11 days by MTT assay
IGROV-1 [18] = experiment: Cytotoxicity against human IGROV1 cells after 1 to 11 days by MTT assay
RXF 393 = experiment: Cytotoxicity against human […] cells after 1 to 11 days by MTT assay
U-251 = experiment: Cytotoxicity against human U251 cells assessed as cell growth at 0.1 uM after 1 to 11 days by MTT assay; conditions: read-out: Activity
Malme-3M = experiment: Cytotoxicity against human MALME-3M cells assessed as cell growth at 0.1 uM after 1 to 11 days by MTT assay; conditions: read-out: Activity
NCI-H460 [19] = experiment: Cytotoxicity against human NCI-H460 cells assessed as cell growth at 0.1 uM after 1 to 11 days by MTT assay; conditions: read-out: Activity
HCC 2998 [20] = experiment: Cytotoxicity against human HCC2998 cells assessed as cell growth at 0.1 uM after 1 to 11 days by MTT assay; conditions: read-out: Activity
786-0 [21] = experiment: Cytotoxicity against human 786-0 cells assessed as cell growth at 0.1 uM after 1 to 11 days by MTT assay; conditions: read-out: Activity
MCF7 = experiment: Cytotoxicity against human MCF7 cells assessed as cell growth at 0.1 uM after 1 to 11 days by MTT assay; conditions: read-out: Activity
SR = experiment: Cytotoxicity against human SR cells assessed as cell growth at 1 uM after 1 to 11 days by MTT assay; conditions: read-out: Activity
A549 [22] = experiment: Cytotoxicity against human A549 cells assessed as cell growth at 1 uM after 1 to 11 days by MTT assay; conditions: read-out: Activity
SNB-75 [23] = experiment: Cytotoxicity against human SNB75 cells assessed as cell growth at 1 uM after 1 to 11 days by MTT assay; conditions: read-out: Activity
LOX IMVI [24] = experiment: Cytotoxicity against human LOXIMVI cells assessed as cell growth at 1 uM after 1 to 11 days by MTT assay; conditions: read-out: Activity
[25] = read-out: LC50 (the source's name)

O=C1Nc2ncccc2/C1=C1/Nc2ccccc2/C1=N\O
growth at 1 µM (OVCAR-4): 97%
growth at 1 µM (UO-31): 80%
growth at 10 µM (SK-MEL-5): 94%
growth at 10 µM (IGROV-1 [1]): 60%
growth at 10 µM (786-0 [2]): 114%
growth at 1 µM (BT-549 [3]): 70%
growth at 10 µM (NCI-H322M): 56%
growth at 10 µM (NCI-H460 [4]): 97%
growth at 10 µM (KM12 [5]): 45%
growth at 10 µM (SF-268): 91%
growth at 10 µM (SF-539): 87%
growth at 10 µM (PC-3): 82%
growth at 10 µM [6]: 78%
growth at 100 µM (RPMI-8226): 2%
growth at 100 µM (NCI-H460 [7]): 41%
growth at 100 µM (HCC 2998 [8]): 39%
growth at 100 µM (SNB-75 [9]): 14%
growth at 100 µM (DU-145): 39%
growth at 100 µM (NCI/ADR-RES [10]): 57%
growth at 1000 µM (MOLT-4): 18%
growth at 1000 µM (A549 [11]): 13%
growth at 1000 µM (NCI-H226): 13%
GI50 (NCI-H23): > 100 µM
TGI (NCI-H23): > 100 µM
CC50 (NCI-H23; [25]): > 100 µM
GI50 (KM12 [12]): 0.77 µM
TGI (KM12 [12]): > 100 µM
CC50 (KM12 [12]; [25]): > 100 µM
growth at 1000 µM (LOX IMVI [13]): 30%
growth at 1000 µM (UACC-257): 60%
growth at 1000 µM (UACC-62 [14]): 25%
growth at 1000 µM (OVCAR-3): 51%
growth at 1000 µM (OVCAR-5): 49%
growth at 1000 µM (NCI/ADR-RES [15]): 55%
growth at 1000 µM (BT-549 [16]): 30%
GI50 (UACC-62 [17]): 3.49 µM
TGI (UACC-62 [17]): > 100 µM
CC50 (UACC-62 [17]; [25]): > 100 µM
GI50 (IGROV-1 [18]): 1.64 µM
TGI (IGROV-1 [18]): > 100 µM
CC50 (IGROV-1 [18]; [25]): > 100 µM
GI50 (RXF 393): 1.22 µM
TGI (RXF 393): > 100 µM
CC50 (RXF 393; [25]): > 100 µM
growth at 0.1 µM (U-251): 97%
growth at 0.1 µM (Malme-3M): 94%
growth at 0.1 µM (NCI-H460 [19]): 110%
growth at 0.1 µM (HCC 2998 [20]): 93%
growth at 0.1 µM (786-0 [21]): 119%
growth at 0.1 µM (MCF7): 98%
growth at 1 µM (SR): 89%
growth at 1 µM (A549 [22]): 95%
growth at 1 µM (SNB-75 [23]): 90%
growth at 1 µM (LOX IMVI [24]): 97%
